Source: ChEMBL document CHEMBL4680146, “Current progress in antimalarial pharmacotherapy and multi-target drug discovery” (Eur J Med Chem, 2020)
In brackets after ≈: the same amount, converted by molar mass.

Key:
Plasmodium falciparum [1] = experiment: Antimalarial activity against chloroquine-sensitive Plasmodium falciparum 3D7 infected in human red blood cells incubated for 48 hrs by [3H]-hypoxanthine incorporation assay; type: functional, organism-based, RBC; conditions: 3D7, Erythrocyte
Falcipain 2 = target: T1, Falcipain 2 (Plasmodium falciparum, UniProt Q9N6S8); experiment: Inhibition of Plasmodium falciparum FP-2
T1 sequence (Q9N6S8 whole entry): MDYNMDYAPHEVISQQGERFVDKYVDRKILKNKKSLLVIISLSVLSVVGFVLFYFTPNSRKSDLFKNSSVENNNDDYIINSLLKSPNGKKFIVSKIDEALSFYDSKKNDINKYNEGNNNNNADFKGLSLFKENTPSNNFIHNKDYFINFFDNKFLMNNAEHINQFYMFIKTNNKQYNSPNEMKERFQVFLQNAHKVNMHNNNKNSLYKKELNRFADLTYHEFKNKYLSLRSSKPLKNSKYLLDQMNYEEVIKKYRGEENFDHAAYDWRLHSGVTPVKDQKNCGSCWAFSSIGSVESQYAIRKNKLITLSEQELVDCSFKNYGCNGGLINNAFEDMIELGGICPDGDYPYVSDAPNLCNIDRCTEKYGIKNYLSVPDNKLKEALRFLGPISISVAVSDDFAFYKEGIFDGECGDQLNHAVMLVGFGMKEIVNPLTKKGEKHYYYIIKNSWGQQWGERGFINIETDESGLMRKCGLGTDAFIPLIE

[2] = Inhibition of Plasmodium falciparum DHFR
Plasmodium falciparum [3] = experiment: Antimalarial activity against chloroquine-resistant Plasmodium falciparum Dd2; type: functional, organism-based
[4] = Inhibition of Plasmodium falciparum DHODH expressed in Escherichia coli BL21(DE3) using L-dihydroorotate as substrate measured every 90 secs for 45 mins by absorbance method
Plasmodium falciparum [5] = experiment: Antimalarial activity against ring stage Plasmodium falciparum 3D7 measured for 72 hrs by absorbance method; type: functional, organism-based; conditions: 3D7, 72 h
Plasmodium falciparum [6] = experiment: Antimalarial activity against trophozoite stage Plasmodium falciparum 3D7 harboring NLuc infected in human erythrocytes assessed as inhibition of new permeability pathway by measuring infected erythrocytes sensitivity to sorbitol-mediated lysis by luminescence method; type: functional, organism-based; conditions: 3D7, Erythrocyte
Hemozoin = experiment: Inhibition of beta-hematin assessed as heme alkylation at 2 molar equivalents incubated for 30 mins by HPLC analysis relative to control; set-up: scale not given: the % may be the effect or the level left
Plasmodium falciparum [7] = experiment: Antimalarial activity against chloroquine-sensitive Plasmodium falciparum F32(CQS)Tanzania incubated for 48 hrs by classical radioactive microdilution method; type: functional, organism-based
Plasmodium falciparum [8] = experiment: Antimalarial activity against chloroquine-sensitive Plasmodium falciparum 3D7 by SyBR Green method
Plasmodium vivax [9] = experiment: Antimalarial activity against Plasmodium vivax infected in human blood incubated for 24 to 36 hrs; type: functional, organism-based
Plasmodium falciparum [10] = experiment: Antimalarial activity against multi-resistant Plasmodium falciparum infected in human erythrocytes assessed as inhibition of [G-3H]hypoxanthine uptake incubated for 42 hrs by liquid scintillation counting method; type: functional, organism-based; conditions: Erythrocyte
Plasmodium falciparum [11] = experiment: Antimalarial activity against chloroquine-resistant Plasmodium falciparum K1 infected in human erythrocytes assessed as inhibition of [G-3H]hypoxanthine uptake preincubated for 24 hrs followed by [G-3H]hypoxanthine addition and measured after 18 to 24 hrs by scintillation spectrometry; type: functional, organism-based; conditions: K1, Erythrocyte
Plasmodium falciparum [12] = experiment: Antimalarial activity against chloroquine-resistant Plasmodium falciparum T996 infected in human erythrocytes assessed as inhibition of [G-3H]hypoxanthine uptake preincubated for 24 hrs followed by [G-3H]hypoxanthine addition and measured after 18 to 24 hrs by scintillation spectrometry; type: functional, organism-based; conditions: T996, Erythrocyte
Plasmodium falciparum [13] = experiment: Antimalarial activity against Plasmodium falciparum 3D7A asexual forms assessed as inhibition of [G-3H]hypoxanthine uptake incubated for 24 hrs followed by [G-3H]hypoxanthine addition and measured after 18 hrs by liquid scintillation spectrometry; type: functional, organism-based
Plasmodium falciparum [14] = experiment: Antimalarial activity against Plasmodium falciparum infected in human erythrocytes assessed as inhibition of [G-3H]hypoxanthine uptake incubated for 42 hrs by liquid scintillation spectrometry; type: functional, organism-based; conditions: Erythrocyte
Plasmodium falciparum [15] = experiment: Antimalarial activity against Plasmodium falciparum 3D7 asexual forms incubated for 72 hrs by luminescence method; type: functional, organism-based; conditions: 3D7, 72 h
Plasmodium vivax [16] = experiment: Antimalarial activity against Plasmodium vivax infected in human blood incubated for 40 to 44 hrs; type: functional, organism-based

Which IC50 (Plasmodium falciparum [1]) does the source give for `C[C@@H]1CC[C@H]2[C@@H](C)C(OCCN3CC[N+](CCNc4ccnc5cc(Cl)ccc45)(CCOC4O[C@@H]5O[C@@]6(C)CC[C@H]7[C@H](C)CC[C@@H]([C@H]4C)[C@@]57OO6)CC3)O[C@@H]3O[C@@]4(C)CC[C@@H]1[C@]32OO4` (some centres undefined) here?
Its IC50 is 0.0295 µM.

Which IC50 (Falcipain 2) does the source give for `Nc1ncc(NCc2ccc(CCNC(=O)c3ccc(F)cc3)cc2)c(N)n1` here?
Its IC50 is 6.8 µM.

What about the IC50 [2] of the same molecule?
The IC50 was 8.8 µM.

What about the IC50 (Plasmodium falciparum [3]) of the same molecule?
Its IC50 is 1.1 µM.

Which IC50 (Plasmodium falciparum [1]) does the source give for `C[C@@H]1CC[C@H]2[C@@H](C)C(OCCN(CCCNc3ccnc4cc(Cl)ccc34)CCOC3O[C@@H]4O[C@@]5(C)CC[C@H]6[C@H](C)CC[C@@H]([C@H]3C)[C@@]46OO5)O[C@@H]3O[C@@]4(C)CC[C@@H]1[C@]32OO4` (some centres undefined) here?
The IC50 was 0.0087 µM.

For `COc1cccc(NC(=O)CSc2nc(-c3ccccc3Cl)ns2)c1`, which EC50 [4] is on record?
Its EC50 is 158 µM.

What about the EC50 (Plasmodium falciparum [5]) of the same molecule?
Its EC50 is 2.48 µM.

What about the EC50 (Plasmodium falciparum [6]) of the same molecule?
The EC50 was 0.367 µM.

For `O=C(Nc1ccc(-c2cn3ccsc3n2)cc1)c1ccc(S(=O)(=O)N2CCCCCC2)cc1`, which EC50 [4] is on record?
The EC50 was greater than 250 µM.

What about the EC50 (Plasmodium falciparum [6]) of the same molecule?
Its EC50 is 0.222 µM.

Which Activity (Hemozoin) does the source give for `CC(C)C1=C[C@H]2OC3(CCC(NCCNc4ccnc5cc(Cl)ccc45)CC3)OO[C@@]2(C)CC1` (some centres undefined) here?
The Activity was 60%.

For `C[C@@H]1CC[C@H]2[C@@H](C)C(=O)O[C@@H]3O[C@@]4(C)CC[C@@H]1[C@]32OO4` [ARTEMISININ], which IC50 (Plasmodium falciparum [7]) is on record?
The IC50 was 0.007 µM.

Which IC50 (Plasmodium falciparum [8]) does the source give for `C[C@H]1[C@H](OC(=O)CCC(=O)O)O[C@@H]2O[C@@]3(C)CC[C@H]4[C@H](C)CC[C@@H]1[C@@]24OO3` [ARTESUNATE] here?
The IC50 was 0.002 µM.

For `Nc1ccc(S(=O)(=O)c2ccc(N)cc2)cc1` [DAPSONE], which IC50 (Plasmodium vivax [9]) is on record?
Its IC50 is 1.62 µM.

For `C[C@H]1c2cccc(O)c2C(=O)C2=C(O)[C@]3(O)C(=O)C(C(N)=O)=C(O)[C@@H](N(C)C)[C@@H]3[C@@H](O)[C@@H]21` [DOXYCYCLINE], which IC50 (Plasmodium falciparum [10]) is on record?
The IC50 was 5.1 µM.

For `CCN(CCO)CCCC(C)Nc1ccnc2cc(Cl)ccc12` (centres undefined) [HYDROXYCHLOROQUINE], which IC50 (Plasmodium falciparum [11]) is on record?
Its IC50 is 2.22 µM.

And the IC50 (Plasmodium falciparum [12])?
Its IC50 is 0.0215 µM.

For `CCCCN(CCCC)CC(O)c1cc(Cl)cc2c1-c1ccc(Cl)cc1/C2=C/c1ccc(Cl)cc1` (centres undefined) [LUMEFANTRINE], which IC50 (Plasmodium falciparum [13]) is on record?
The IC50 was 0.0032 µM.

For `Clc1ccc2c(N3CCN(CCCN4CCN(c5ccnc6cc(Cl)ccc56)CC4)CC3)ccnc2c1` [PIPERAQUINE], which IC50 (Plasmodium falciparum [14]) is on record?
Its IC50 is 0.0813 µM.

Which IC50 (Plasmodium falciparum [13]) does the source give for `COc1cc(NC(C)CCCN)c2ncccc2c1` (centres undefined) [PRIMAQUINE] here?
Its IC50 is greater than 10 µM.

For `CCc1nc(N)nc(N)c1-c1ccc(Cl)cc1` [PYRIMETHAMINE], which IC50 (Plasmodium falciparum [15]) is on record?
The IC50 was 0.00435 µM.

What about the IC50 (Plasmodium falciparum [3]) of the same molecule?
Its IC50 is greater than 10 µM.

For `C=C[C@H]1CN2CC[C@H]1C[C@H]2[C@H](O)c1ccnc2ccc(OC)cc12` [QUININE], which IC50 (Plasmodium falciparum [13]) is on record?
The IC50 was 0.066 µM.

Which IC50 (Plasmodium vivax [16]) does the source give for `COc1ncnc(NS(=O)(=O)c2ccc(N)cc2)c1OC` [SULFADOXINE] here?
The IC50 was 0.01 mg/L (≈ 0.0322 µM).
